Measured values: patent US7098333B2, “Pyrrolo[2,3-d]pyrimidine and their use as purinergic receptor antagonists” (Vernalis Research Limited, priority 2001, dated 2006)
Blank lines part the entries; values can stand above or below the compound they belong to.

How the values were obtained:
[1] = target: human adenosine A2A receptors (Homo sapiens, UniProt P29274); assay: Binding affinities at hA2A receptors, displacement of [3H]-CGS 21680; conditions: displacement of radioligand [3H]-CGS 21680, in vitro
adenosine A2A receptor = conditions: cited from earlier work
[2] = cited from earlier work

Sequence of human adenosine A2A receptors (P29274 whole entry): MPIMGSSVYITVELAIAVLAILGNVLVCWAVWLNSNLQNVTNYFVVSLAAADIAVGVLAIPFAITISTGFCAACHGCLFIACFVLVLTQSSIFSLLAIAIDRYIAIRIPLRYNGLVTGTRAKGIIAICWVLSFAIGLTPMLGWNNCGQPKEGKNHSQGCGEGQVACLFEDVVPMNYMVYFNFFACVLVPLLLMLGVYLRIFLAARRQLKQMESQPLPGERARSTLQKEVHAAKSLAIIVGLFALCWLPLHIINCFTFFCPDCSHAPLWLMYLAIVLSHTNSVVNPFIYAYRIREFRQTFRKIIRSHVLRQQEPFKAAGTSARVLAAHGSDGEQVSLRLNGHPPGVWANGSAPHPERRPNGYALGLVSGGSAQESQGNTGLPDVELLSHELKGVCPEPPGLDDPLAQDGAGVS

Ki [1]: 60 nM
melting point: 196.9 to 197.1 °C
Compound: CN(C)c1nc(-c2ccco2)c2cc[nH]c2n1 [Example 1, N,N-dimethyl-4-(2-furyl)-1H-pyrrolo[2,3-d]pyrimidine-2-amine]

melting point: 265.8 to 266.3 °C
Compound: Clc1nc(-c2ccco2)c2cc[nH]c2n1 [Example 2, 2-chloro-4-(2-furyl)-1H-pyrrolo[2,3-d]pyrimidine]

melting point: 91.7 to 92.3 °C
Compound: CN(C)c1nc(-c2ccco2)c2ccn(Cc3ccccc3)c2n1 [Example 3, 7-benzyl-N,N-dimethyl-4-(2-furyl)-7H-pyrrolo[2,3-d]pyrimidine-2-amine]

melting point: 108.3 to 109.1 °C
Compound: CN(C)c1nc(-c2ccco2)c2ccn(C(=O)c3ccccc3)c2n1 [Example 5, 7-benzoyl-N,N-dimethyl-4-(2-furyl)-7H-pyrrolo[2,3-d]pyrimidine-2-amine]

melting point: 174.8 to 175.6 °C
Compound: OC[C@H]1CCCN1c1nc(-c2ccco2)c2cc[nH]c2n1 [Example 6, (2R)-2-(2-hydroxymethylpyrrolidin-1-yl)-4-(2-furyl)-1H-pyrrolo[2,3-d]pyrimidine]

melting point: 154.8 to 154.9 °C
Compound: COc1ccc(CNc2nc(-c3ccco3)c3cc[nH]c3n2)cc1OC [Example 7, N-(3,4-dimethoxybenzyl)-4-(2-furyl)-1H-pyrrolo[2,3-d]pyrimidine-2-amine]

Ki [1]: 272 nM
Compound: Nc1nc(-c2ccco2)c2cc[nH]c2n1 [Example 8, 4-(2-furyl)-1H-pyrrolo[2,3-d]pyrimidine-2-amine]

melting point: 115.1 to 115.2 °C
Compound: CN(C)c1nc(-c2ccco2)c2ccn(Cc3ccccc3F)c2n1 [Example 11, N,N-dimethyl-7-(2-fluorobenzyl)-4-(2-furyl)-7H-pyrrolo[2,3-d]pyrimidine-2-amine]

Ki [1]: 16 nM
Compound: Nc1nc(-c2ccco2)c2ccn(Cc3ccccc3F)c2n1 [Example 13, 7-(2-fluorobenzyl)-4-(2-furyl)-7H-pyrrolo[2,3-d]pyrimidine-2-amine]

Compound: CCCn1c(=O)c2c(nc(/C=C/c3ccc(OC)c(OC)c3)n2C)n(CCC)c1=O [KF 17837, (E)-8-(3,4-dimethoxystyryl)-1,3-dipropyl-7-methylxanthine]
anticataleptic effects of a subthreshold dose of L-DOPA plus benserazide (adenosine A2A receptor; combination with L-DOPA plus benserazide): potentiated
catalepsy induced by haloperidol and reserpine (adenosine A2A receptor; in vivo): reduced
cataleptic responses induced by intracerebroventricular CGS 21680 (adenosine A2A receptor; oral administration): significantly ameliorated

Compound: Cn1c(=O)c2[nH]cnc2n(C)c1=O [Theophylline, 1,3-dimethylxanthine]
mean objective disability scores ([2]; 150 mg/day oral, up to 12 weeks, 15 Parkinsonian patients): significant improvements
patients reporting moderate or marked subjective improvement ([2]; of 15 Parkinsonian patients, 150 mg/day oral, up to 12 weeks): 11
serum theophylline levels ([2]; slow release oral preparation 150 mg/day, after one week, 15 Parkinsonian patients): 4.44 mg/L
